Patent publication US11492347B2 (ENYO PHARMA, priority 2018, dated 2022)

Legend:
PRXF PC-3M = assay: Cytotoxicity, propidium iodide based monolayer assay; type: cell-based; settings: Homo sapiens, 96 h; PRXF PC-3M prostate adeno carcinoma, four days of treatment, T/C=50%; read-out: Absolute IC50
Method: (§1) The cytotoxicity was tested for compounds of the invention on five different cell-lines, namely LXFL 1121, MAXF 401, MMXF L-636, PRXF PC-3M and UXF 1138 which are respectively lung large cell carcinoma, breast adeno carcinoma, multiple myeloma, prostate adeno carcinoma and uterine sarcoma.
(§2) A working stock solution of the test compounds was prepared in DMSO at a concentration of 33 mM or 8.25 mM, and small aliquots were stored at −20° C. On each day of an experiment, a frozen aliquot of the working stock solution was thawed and stored at room temperature prior to and during treatment.
(§3) All liquid handling steps were performed using the Tecan Freedom EVO 200 platform. First, serial 2-fold dilutions of the 33 mM DMSO working stock solution were done in DMSO. The DMSO dilutions were then diluted 1:22 into cell culture medium in an intermediate dilution plate. Finally, 10 μl taken from the intermediate dilution plate were transferred to 140 μl/well of the final assay plate. Thus, the DMSO serial dilutions were diluted 1:330 with cell culture medium, and the DMSO concentration in the assay was 0.3% v/v.
(§4) Cell lines were routinely passaged once or twice weekly and maintained in culture for up to 20 passages. Most cell lines were grown at 37° C. in a humidified atmosphere with 5% CO2 in RPMI 1640 medium (25 mM HEPES, with L-glutamine, #FG1385, Biochrom, Berlin, Germany) supplemented with 10% (v/v) fetal calf serum (Sigma, Taufkirchen, Germany) and 0.05 mg/mL gentamicin (Life Technologies, Karlsruhe, Germany).
(§5) A modified propidium iodide (PI) based monolayer assay was used to assess the anti-cancer activity of the compounds. Briefly, cells were harvested from exponential phase cultures, counted and plated in 96 well flat-bottom microtiter plates at a cell density of 4,000 to 40,000 cells/well dependent on the cell line's growth rate. The individual seeding density for each cell line ensure exponential growth conditions over the whole or at least the bigger part of the treatment period. After a 24 h recovery period, to allow the cells to resume exponential growth, 10 μl of culture medium (6 control wells/cell line/plate) or of culture medium with test compounds were added. Compounds were applied at ten concentrations in 2-fold increments in duplicates up to 25 μM or 100 μM and treatment continued for four days. After four days of treatment, cells were next washed with 200 μl PBS to remove dead cells and debris, then 200 μl of a solution containing 7 μg/ml propidium iodide (PI) and 0.1% (v/v) Triton X-100 was added. After an incubation period of 1-2 hours at room temperature, fluorescence (FU) was measured using the Enspire Multimode Plate Reader (excitation λ=530 nm, emission k=620 nm) to quantify the amount of attached viable cells.
(§6) Drug effects were expressed in terms of the percentage of the fluorescence signal, obtained by comparison of the mean signal in the treated wells with the mean signal of the untreated controls (expressed by the test-versus-control value, T/C−value [%]):
(§7) [formula] IC values reported reflect the concentration of the test compound that achieves T/C=50%. Calculation was done by 4 parameter non-linear curve fit.

MAXF 401 = assay: as above; type: cell-based; settings: Homo sapiens, MAXF401, 96 h; MAXF 401 breast adeno carcinoma, four days of treatment, T/C=50%; read-out: Absolute IC50
Method: as §1, §2, §3, §4, §5, §6, §7

UXF 1138 = assay: as above; type: cell-based; settings: 96 h; UXF 1138 uterine sarcoma, four days of treatment, T/C=50%; read-out: Absolute IC50
Method: as §1, §2, §3, §4, §5, §6, §7

LXFL 1121 = assay: as above; settings: 96 h; LXFL 1121 lung large cell carcinoma, four days of treatment, T/C=50%; read-out: Absolute IC50
Method: as §1, §2, §3
Cell lines were routinely passaged once or twice weekly and maintained in culture for up to 20 passages. […]
A modified propidium iodide (PI) based monolayer assay was used to assess the anti-cancer activity of the compounds. Briefly, cells were harvested from exponential phase cultures, counted and plated in 96 well flat-bottom microtiter plates at a cell density of 4,000 to 40,000 cells/well dependent on the cell line's growth rate. […] After an incubation period of 1-2 hours at room temperature, fluorescence (FU) was measured using the Enspire Multimode Plate Reader (excitation λ=530 nm, emission k=620 nm) to quantify the amount of attached viable cells.
Drug effects were expressed in terms of the percentage of the fluorescence signal, obtained by comparison of the mean signal in the treated wells with the mean signal of the untreated controls (expressed by the test-versus-control value, T/C−value [%]): […]

[1] = system: H1N1 (influenza A/New Caledonia/20/99); assay: microbe, parasite or virus in culture; type: cell-based; settings: H1N1, A549, 48 h
[2] = target: T1, CISD2 Gene Product (NAF-1) (Homo sapiens, UniProt Q8N5K1); assay: Stability of Fe-S cluster binding of purified NEET protein (absorbance 458 nm); type: biochemical
T1 sequence (Q8N5K1 57-135 limits assumed): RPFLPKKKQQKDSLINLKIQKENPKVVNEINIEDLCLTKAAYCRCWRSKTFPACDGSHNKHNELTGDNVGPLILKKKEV
Method: (§8) The modulator effect on the NEET proteins encoded by human CISD1, CISD2, and CISD3 genes by the compounds of the invention has been tested and is reported below. Particularly, the biochemical function of the NEET proteins is measured by the stability of Fe—S cluster binding of the purified NEET proteins.
(§9) The Fe—S cluster binding capacity of NEET proteins is known to be coordinated by four amino-acids in a stretch of 16 (three Cysteine and one Histidine). As the lability of the Fe—S cluster of NEET proteins is sensitive to the environment, cluster stability measurements are one of the measures of interactions of NEET proteins with small molecules and compounds. NEET protein/2Fe-2S cluster stability can be assessed by monitoring the decay in absorbance of its characteristic 458-nm peak (characteristic of the oxidized 2Fe-2S cluster) over time. Each NEET protein (mitoNEET, NAF-1 and Miner 2) was tested for its Fe—S binding in the absence or presence of a compound according to the invention (see table 4 below). The rate of cluster release (time in minutes to achieve 50% loss of bound Fe—S cluster) was compared for each NEET protein in the presence of one of the compounds of the invention (in a 1:3 protein:compound molar ratio) relative to each protein alone.
(§10) At pH 6, all the three NEET proteins (mitoNEET, NAF-1 and Miner 2) have a characteristic rate of loss of the bound Fe—S cluster that can be measured by the decrease of absorbance at wavelength 458 nm over time, using a spectrophotometer. Thus, Bis-Tris buffer (100 mM Bis-Tris pH6, 100 mM Nacl) was used at pH 6 to dilute either DMSO (Blank sample: Bis-Tris Buffer pH 6, 66 μM DMSO), DMSO and one of the three NEET proteins (Control sample: Bis-Tris Buffer pH 6, 66 μM DMSO, 20 μM purified NEET protein) or DMSO, one of the three NEET proteins and a compound of the invention (Test sample: Bis-Tris Buffer pH 6, 66 μM DMSO, 20 μM purified NEET protein, 60 μM compound of the invention).
(§11) A reaction mix containing DMSO diluted in the Bis-Tris Buffer with or without a compound of the invention was prepared. The purified NEET protein was the last component added to the reaction mix which was then aliquoted into 4 replicates in 96 wells plates. The absorbance at wavelength 458 nm was taken at 5 minutes intervals at 37° C. with a spectrofluorimeter. The assay run time for CISD2 gene product (NAF-1) was 500 minutes and 180 minutes for both the CISD1gene product (mitoNEET) and the CISD3 gene product (Miner2).
(§12) In addition to time monitoring, residual bound Fe—S cluster to NEET protein was measured at the final point of the spectrometry assay for each Test sample and compared to the Control sample data (in parenthesis table 4). This residual binding is measured by the differential percentage between the absorbance 458 nm at time zero and the absorbance 458 nm at the end of the experiment (i.e. respectively 500 or 180 minutes as described here above), showing the percentage of NEET protein still able to bind a Fe—S cluster.
(§13) Analysis of the absorbance enables the time for which 50% loss of bound Fe—S cluster is reached (i.e. a 50% absorbance decrease at 458 nm) for each Test sample and each Control sample (in parenthesis table 4) to be determined. The data are then compared to determine whether the compound of the invention stabilizes or destabilizes the NEET protein/Fe—S cluster binding.

[3] = target: T2, CISD1 Gene Product (mitoNEET) (Homo sapiens, UniProt Q9NZ45); assay: as above; type: biochemical
T2 sequence (Q9NZ45 33-108 limits assumed): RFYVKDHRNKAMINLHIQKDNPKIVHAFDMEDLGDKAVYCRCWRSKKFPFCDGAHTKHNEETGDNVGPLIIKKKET
Method: as §8, §9, §10, §11, §12, §13

[4] = target: T3, CISD3 Gene Product (Miner2) (Homo sapiens, UniProt P0C7P0); assay: as above; type: biochemical
T3 sequence (P0C7P0 15-127): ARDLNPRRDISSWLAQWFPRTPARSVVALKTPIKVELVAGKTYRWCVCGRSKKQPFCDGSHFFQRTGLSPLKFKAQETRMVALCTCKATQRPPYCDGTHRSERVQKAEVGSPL
Method: as §8, §9, §10, §11, §12, §13

[5] = time to 50% cluster loss changed by more than 25% compared to the Control sample, at the concentrations tested

CC1(C)CCc2c(sc(NC(=O)c3ccc(N4CCOCC4)cc3)c2C(=O)O)C1 [Compound #22, 6,6-Dimethyl-2-[(4-morpholinobenzoyl)amino]-5,7-dihydro-4H-benzothiophene-3-carboxylic acid]
IC50 (PRXF PC-3M): 705 nM
IC50 (MAXF 401): 539 nM
IC50 (UXF 1138): 332 nM
IC50 (LXFL 1121): 546 nM
IC50 [1]: 120 nM

COCCNc1ccc(C(=O)Nc2sc3c(c2C(=O)O)CC(C)(C)CC3(C)C)cc1 [Compound #60, 2-[[4-(2-Methoxyethylamino)benzoyl]amino]-5,5,7,7-tetramethyl-4,6-dihydrobenzothiophene-3-carboxylic acid]
Time (in minutes) to achieve 50% loss of bound cluster (Absorbance 458 nm) ([2]; NAF-1 20 μM, compound 60 μM, pH 6, 37° C., run time 500 minutes, vehicle control 310 or 210): 120 (310) minutes
Residual cluster bound at end of experiment (Percentage Absorbance 458 nm at time zero) ([2]; NAF-1 20 μM, compound 60 μM, pH 6, at 500 minutes, vehicle control 3%): 12% (3%)
Stabiliser or destabiliser of Fe-S cluster binding by CISD2 Gene Product (NAF-1) [2, 5]: destabilisers
Time (in minutes) to achieve 50% loss of bound cluster (Absorbance 458 nm) ([3]; mitoNEET 20 μM, compound 60 μM, pH 6, 37° C., run time 180 minutes, vehicle control 80): 100 (80) minutes
Residual cluster bound at end of experiment (Percentage Absorbance 458 nm at time zero) ([3]; mitoNEET 20 μM, compound 60 μM, pH 6, at 180 minutes, vehicle control 16%): 35% (16%)
Stabiliser or destabiliser of Fe-S cluster binding by CISD1 Gene Product (mitoNEET) [3, 5]: stabilisers
Residual cluster bound at end of experiment (Percentage Absorbance 458 nm at time zero) ([4]; CISD3 gene product 20 μM, compound 60 μM, pH 6, at 180 minutes, vehicle control 11%): 38% (11%)
Time (in minutes) to achieve 50% loss of bound cluster (Absorbance 458 nm) ([4]; Miner2 20 μM, compound 60 μM, pH 6, 37° C., run time 180 minutes, vehicle control 60): 90 (60) minutes
Stabiliser or destabiliser of Fe-S cluster binding by CISD3 Gene Product (Miner2) [4, 5]: Stabilisers
IC50 (UXF 1138): 851 nM
IC50 [1]: 10 nM
